Consider five compounds from ChEMBL document CHEMBL4406807, “Discovery of 3,4,6-Trisubstituted Piperidine Derivatives as Orally Active, Low hERG Blocking Akt Inhibitors via Conformational Restriction and Structure-Based Design” (J Med Chem, 2019).

Series [1] has as its target hERG (KCNH2) (Homo sapiens, UniProt Q12809). As to the kind of experiment: Inhibition of ERG in human HEK293 cells at 3 uM at -80 mV holding potential by whole-cell patch clamp assay relative to control. Format: cell-based. Particulars: HEK293 cells expressing ERG.
In series [2] the test system is HCT-116. As to the kind of experiment: cells. Particulars: Homo sapiens, HCT-116, 72 h.
For series [3], the target named is RAC-alpha serine/threonine-protein kinase (Homo sapiens, UniProt P31749).
Description: Inhibition of human Akt1 expressed in Escherichia coli using STK Substrate 2-biotin as substrate incubated for 1 hr by HTRF assay
Series [4] relates to OVCAR-8. As to the kind of experiment: Antiproliferative activity against human OVCAR8 cells. It counts as functional, cell-based.
Series [5] relates to LNCaP. Description: Antiproliferative activity against human LNCAP cells. Format: functional, cell-based.
Series [6] in a line: MRT (0 to t) in Sprague-Dawley rat at 25 mg/kg, ig measured up to 24 hrs by LC-MS/MS analysis. Particulars: in vivo, po. Format: ADME, organism-based.
A short description of series [7]: MRT (0 to infinity) in Sprague-Dawley rat at 25 mg/kg, ig measured up to 24 hrs by LC-MS/MS analysis. Format: ADME, organism-based. The settings on record: in vivo, po.
Series [8] has as its target T1, Serine/threonine-protein kinase Sgk1 (Homo sapiens, UniProt O00141).
T1 sequence (O00141 whole entry): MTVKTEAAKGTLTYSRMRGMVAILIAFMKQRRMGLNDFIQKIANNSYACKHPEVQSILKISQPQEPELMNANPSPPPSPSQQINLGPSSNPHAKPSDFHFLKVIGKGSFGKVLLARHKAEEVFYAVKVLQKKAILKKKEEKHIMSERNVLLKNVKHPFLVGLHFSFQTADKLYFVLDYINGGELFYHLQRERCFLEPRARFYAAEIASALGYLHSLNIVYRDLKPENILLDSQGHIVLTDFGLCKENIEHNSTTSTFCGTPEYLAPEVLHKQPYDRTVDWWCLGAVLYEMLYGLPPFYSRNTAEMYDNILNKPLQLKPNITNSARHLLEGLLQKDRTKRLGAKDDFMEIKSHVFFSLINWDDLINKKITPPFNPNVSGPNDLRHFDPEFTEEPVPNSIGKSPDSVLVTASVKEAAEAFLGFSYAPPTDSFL
As to the kind of experiment: Inhibition of human SGK by mobility shift assay.

Series [9] concerns the target Ribosomal protein S6 kinase beta-1 (Homo sapiens, UniProt P23443). As to the kind of experiment: Inhibition of human P70S6K by mobility shift assay.
Series [10] in a line: Tmax in Sprague-Dawley rat at 25 mg/kg, ig measured up to 24 hrs by LC-MS/MS analysis. It counts as ADME, organism-based. Particulars: in vivo, po.
Series [11] in a line: Cmax in Sprague-Dawley rat at 25 mg/kg, ig measured up to 24 hrs by LC-MS/MS analysis. Format: ADME, organism-based. Further details: dose 25 mg/kg, route […]. Particulars: in vivo, po.
The nature of series [12]: Stability in mouse plasma at 100 ug/ml after 1 hr by LC/MS analysis. It counts as ADME, cell-free. The settings on record: read-out: Stability.
Series [13] in a line: Clearance in Sprague-Dawley rat at 25 mg/kg, ig measured up to 24 hrs by LC-MS/MS analysis. It counts as ADME, organism-based. Particulars: in vivo, po.
For series [14], the target named is Protein kinase C (PKC). As to the kind of experiment: Inhibition of PKC (unknown origin). Format: protein assay, Homo sapiens.
Series [15] can be described thus: AUC (0 to infinity) in Sprague-Dawley rat at 25 mg/kg, ig measured up to 24 hrs by LC-MS/MS analysis. It counts as ADME, organism-based. Particulars: in vivo, po. The arrangement: dose 25 mg/kg, route […], time infinity.
Series [16] has as its target RAC-gamma serine/threonine-protein kinase (Homo sapiens, UniProt Q9Y243). Description: Inhibition of Akt3 (unknown origin) by mobile shift assay.
For series [17], the target named is Ribosomal protein S6 kinase alpha-1 (Homo sapiens, UniProt Q15418). Description: Inhibition of RSK1 (unknown origin) by mobility shift assay.
The nature of series [18]: Microsomal stability in monkey liver microsomes assessed as compound remaining at 100 ug/ml in presence of NADPH measured at 1.5 hrs by LC/MS analysis. Format: ADME, Macaca mulatta, Microsome. Particulars: rhesus monkey, read-out: Stability.
A short description of series [19]: Stability in human plasma at 100 ug/ml after 1 hr by LC/MS analysis. The settings on record: read-out: Stability. Format: ADME, cell-free.
The nature of series [20]: AUC (0 to t) in Sprague-Dawley rat at 25 mg/kg, ig measured up to 24 hrs by LC-MS/MS analysis. It counts as ADME, organism-based. The arrangement: time < 24 hr, dose 25 mg/kg, route […]. Particulars: in vivo, po.
Series [21] is described as follows: Volume of distribution in Sprague-Dawley rat at 25 mg/kg, ig measured up to 24 hrs by LC-MS/MS analysis. Format: ADME, organism-based. Particulars: in vivo, po.
Series [22] concerns the target Rho-associated protein kinase 1 (Homo sapiens, UniProt Q13464). Description: Inhibition of human ROCK1 by mobile shift assay.
Series [23] has as its target RAC-beta serine/threonine-protein kinase (Homo sapiens, UniProt P31751). As to the kind of experiment: Inhibition of human Akt2 by mobile shift assay.
Series [24] can be described thus: Microsomal stability in mouse liver microsomes assessed as compound remaining at 100 ug/ml in presence of NADPH measured at 1.5 hrs by LC/MS analysis. Format: ADME, Microsome. Particulars: read-out: Stability. (In general: Liver microsomes are vesicles of endoplasmic reticulum, rich in cytochrome P450 enzymes.)
The nature of series [25]: Microsomal stability in dog liver microsomes assessed as compound remaining at 100 ug/ml in presence of NADPH measured at 1.5 hrs by LC/MS analysis. Format: ADME, Canis lupus familiaris, Microsome. Particulars: read-out: Stability.
Series [26] is described as follows: Microsomal stability in rat liver microsomes assessed as compound remaining at 100 ug/ml in presence of NADPH measured at 1.5 hrs by LC/MS analysis. Particulars: read-out: Stability. Format: ADME, Microsome.
Series [27] is described as follows: Inhibition of recombinant His-tagged human PKA expressed in Escherichia coli using Ser/Thr 01 as substrate after 1 hr by Z-lyte assay.
Series [28] can be described thus: Half-life in Sprague-Dawley rat at 25 mg/kg, ig measured up to 24 hrs by LC-MS/MS analysis. It counts as ADME, organism-based. Particulars: in vivo, po.

Sequence of RAC-alpha serine/threonine-protein kinase (P31749 whole entry): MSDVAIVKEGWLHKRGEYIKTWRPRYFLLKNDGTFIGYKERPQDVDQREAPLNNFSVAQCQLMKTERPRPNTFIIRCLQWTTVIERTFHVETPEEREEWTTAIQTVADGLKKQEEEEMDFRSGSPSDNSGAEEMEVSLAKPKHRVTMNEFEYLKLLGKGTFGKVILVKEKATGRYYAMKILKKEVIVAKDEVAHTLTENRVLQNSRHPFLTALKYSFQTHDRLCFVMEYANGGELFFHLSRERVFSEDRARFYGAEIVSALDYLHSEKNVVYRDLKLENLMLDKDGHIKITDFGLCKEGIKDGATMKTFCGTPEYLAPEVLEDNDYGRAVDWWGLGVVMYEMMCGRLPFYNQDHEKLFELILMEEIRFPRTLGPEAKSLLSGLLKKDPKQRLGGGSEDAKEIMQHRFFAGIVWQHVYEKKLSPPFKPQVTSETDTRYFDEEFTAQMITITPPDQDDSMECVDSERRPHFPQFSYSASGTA
Sequence of hERG (KCNH2) (Q12809 whole entry): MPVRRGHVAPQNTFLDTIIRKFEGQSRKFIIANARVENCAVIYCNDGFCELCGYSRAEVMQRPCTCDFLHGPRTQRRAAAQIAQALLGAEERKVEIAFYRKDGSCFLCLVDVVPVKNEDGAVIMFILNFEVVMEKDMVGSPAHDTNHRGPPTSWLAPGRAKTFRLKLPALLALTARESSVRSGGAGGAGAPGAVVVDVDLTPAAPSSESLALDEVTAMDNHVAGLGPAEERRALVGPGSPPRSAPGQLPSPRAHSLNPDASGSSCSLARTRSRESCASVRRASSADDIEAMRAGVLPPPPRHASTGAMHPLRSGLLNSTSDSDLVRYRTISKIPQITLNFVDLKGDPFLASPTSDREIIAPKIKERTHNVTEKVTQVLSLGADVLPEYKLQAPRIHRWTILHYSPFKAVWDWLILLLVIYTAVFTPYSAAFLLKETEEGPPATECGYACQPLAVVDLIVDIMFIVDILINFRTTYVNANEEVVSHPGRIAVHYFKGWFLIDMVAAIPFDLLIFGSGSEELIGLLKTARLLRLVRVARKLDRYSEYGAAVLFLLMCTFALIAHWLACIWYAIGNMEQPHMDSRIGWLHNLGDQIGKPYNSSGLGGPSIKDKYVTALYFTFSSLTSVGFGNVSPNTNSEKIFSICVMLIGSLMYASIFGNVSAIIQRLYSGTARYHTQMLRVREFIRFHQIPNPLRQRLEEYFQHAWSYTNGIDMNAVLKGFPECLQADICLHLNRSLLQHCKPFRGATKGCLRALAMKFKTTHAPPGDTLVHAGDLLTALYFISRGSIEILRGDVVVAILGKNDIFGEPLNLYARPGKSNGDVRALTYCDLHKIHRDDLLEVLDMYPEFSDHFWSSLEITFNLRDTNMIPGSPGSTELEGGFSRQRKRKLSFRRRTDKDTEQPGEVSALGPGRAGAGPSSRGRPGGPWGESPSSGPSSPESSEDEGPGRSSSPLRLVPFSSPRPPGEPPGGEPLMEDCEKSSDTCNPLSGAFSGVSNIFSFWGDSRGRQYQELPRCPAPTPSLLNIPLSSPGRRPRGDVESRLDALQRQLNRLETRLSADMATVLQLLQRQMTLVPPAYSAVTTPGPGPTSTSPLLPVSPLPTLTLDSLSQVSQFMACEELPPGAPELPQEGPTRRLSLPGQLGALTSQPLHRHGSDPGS
Sequence of RAC-beta serine/threonine-protein kinase (P31751 whole entry): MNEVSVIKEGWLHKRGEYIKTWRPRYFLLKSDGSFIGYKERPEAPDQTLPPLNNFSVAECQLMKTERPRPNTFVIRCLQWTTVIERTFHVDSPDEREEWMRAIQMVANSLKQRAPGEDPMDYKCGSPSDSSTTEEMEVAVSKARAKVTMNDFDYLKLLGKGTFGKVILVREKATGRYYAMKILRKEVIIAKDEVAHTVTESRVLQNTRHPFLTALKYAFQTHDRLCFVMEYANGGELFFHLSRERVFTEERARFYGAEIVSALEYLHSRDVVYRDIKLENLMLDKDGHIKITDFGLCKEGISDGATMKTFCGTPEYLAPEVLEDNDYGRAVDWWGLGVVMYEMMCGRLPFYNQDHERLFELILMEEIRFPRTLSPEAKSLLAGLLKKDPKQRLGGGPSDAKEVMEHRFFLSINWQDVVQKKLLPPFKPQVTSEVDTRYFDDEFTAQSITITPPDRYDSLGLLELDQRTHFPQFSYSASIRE
Sequence of Ribosomal protein S6 kinase beta-1 (P23443 whole entry): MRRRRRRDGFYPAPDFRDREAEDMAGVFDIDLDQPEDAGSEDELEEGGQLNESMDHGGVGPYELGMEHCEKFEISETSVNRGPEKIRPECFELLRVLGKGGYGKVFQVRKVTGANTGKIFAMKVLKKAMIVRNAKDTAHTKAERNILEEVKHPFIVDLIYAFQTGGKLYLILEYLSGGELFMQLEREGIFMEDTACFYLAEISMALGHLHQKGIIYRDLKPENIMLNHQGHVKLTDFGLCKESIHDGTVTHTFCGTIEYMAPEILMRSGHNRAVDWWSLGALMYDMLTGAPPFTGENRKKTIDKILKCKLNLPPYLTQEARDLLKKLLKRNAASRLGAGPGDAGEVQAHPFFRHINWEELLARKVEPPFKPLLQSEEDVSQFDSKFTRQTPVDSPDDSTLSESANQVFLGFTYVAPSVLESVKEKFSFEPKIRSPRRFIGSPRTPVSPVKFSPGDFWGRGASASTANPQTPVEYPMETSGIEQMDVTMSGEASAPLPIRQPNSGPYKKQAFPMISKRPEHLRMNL
Sequence of Ribosomal protein S6 kinase alpha-1 (Q15418 whole entry): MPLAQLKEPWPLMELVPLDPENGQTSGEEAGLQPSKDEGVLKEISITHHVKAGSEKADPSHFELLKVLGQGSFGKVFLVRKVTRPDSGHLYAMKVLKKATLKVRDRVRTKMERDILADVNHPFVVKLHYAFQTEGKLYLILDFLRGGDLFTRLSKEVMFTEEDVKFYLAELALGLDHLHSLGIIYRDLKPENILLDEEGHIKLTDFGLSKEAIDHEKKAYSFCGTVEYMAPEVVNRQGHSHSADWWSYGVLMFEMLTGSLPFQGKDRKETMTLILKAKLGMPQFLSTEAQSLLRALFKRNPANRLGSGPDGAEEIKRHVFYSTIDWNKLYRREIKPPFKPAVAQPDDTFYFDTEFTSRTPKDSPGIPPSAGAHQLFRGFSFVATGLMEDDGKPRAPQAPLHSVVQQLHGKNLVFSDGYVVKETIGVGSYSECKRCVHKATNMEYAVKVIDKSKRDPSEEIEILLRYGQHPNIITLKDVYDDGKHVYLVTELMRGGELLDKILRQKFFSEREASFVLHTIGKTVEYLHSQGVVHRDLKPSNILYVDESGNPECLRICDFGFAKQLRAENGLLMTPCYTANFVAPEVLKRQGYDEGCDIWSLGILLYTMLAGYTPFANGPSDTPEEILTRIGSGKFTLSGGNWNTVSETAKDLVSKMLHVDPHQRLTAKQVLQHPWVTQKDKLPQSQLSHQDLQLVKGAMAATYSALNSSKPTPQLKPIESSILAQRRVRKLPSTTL
Sequence of RAC-gamma serine/threonine-protein kinase (Q9Y243 whole entry): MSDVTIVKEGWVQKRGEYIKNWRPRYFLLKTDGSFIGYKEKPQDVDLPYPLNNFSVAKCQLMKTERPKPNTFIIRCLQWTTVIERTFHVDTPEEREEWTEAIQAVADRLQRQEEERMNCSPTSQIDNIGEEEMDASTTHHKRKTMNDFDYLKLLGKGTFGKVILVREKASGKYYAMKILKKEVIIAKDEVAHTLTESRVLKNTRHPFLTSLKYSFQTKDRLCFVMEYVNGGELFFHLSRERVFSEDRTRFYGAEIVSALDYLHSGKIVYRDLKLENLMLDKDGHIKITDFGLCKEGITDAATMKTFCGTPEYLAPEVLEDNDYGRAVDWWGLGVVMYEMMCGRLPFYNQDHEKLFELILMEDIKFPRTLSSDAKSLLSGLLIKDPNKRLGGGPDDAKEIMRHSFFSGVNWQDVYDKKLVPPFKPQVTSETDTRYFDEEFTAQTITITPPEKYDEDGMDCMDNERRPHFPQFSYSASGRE

One may read the inhibition as the change of the read-out against control, counted positive when it falls. One may read the IC50 as the concentration that gives 50% inhibition. Compound `CNC(=O)C[C@@H]1C[C@@H](c2ccc(Cl)c(Cl)c2)[C@H](NC(=O)c2cc(-c3c(Cl)cnn3C)c(Cl)o2)CN1` registered an inhibition at 3 µM in [1] of 45.9%. In addition, the IC50 in series [2] came to 450 nM; in series [3] it was 2.64 nM; in series [4], 1130 nM; in series [5], 40 nM.
In series [1], `Cn1ncc(Cl)c1-c1cc(C(=O)N[C@@H]2CN[C@H](CC(=O)NCCO)C[C@H]2c2ccc(Cl)c(Cl)c2)oc1Cl` came in with an inhibition at 3 µM of 6.7%. The IC50 in series [2] came out at 670 nM; in series [3] it was 1.41 nM; in series [4] it was 1450 nM; in series [5] it was 40 nM.
`CC(=O)NCC[C@@H]1C[C@@H](c2ccc(F)c(F)c2)[C@H](NC(=O)c2cc(-c3c(Cl)cnn3C)c(Cl)o2)CN1` yielded an inhibition at 3 µM in [1] of 7.4%. Also, the 50% inhibitory concentration (IC50) was found to be 920 nM in series [2], 2.49 nM in series [3], 880 nM in series [4] and 130 nM in series [5].
Consider `Cn1ncc(Cl)c1-c1cc(C(=O)N[C@@H]2CN[C@H](CCN3CCOCC3)C[C@H]2c2ccc(Cl)c(Cl)c2)oc1Cl`, for which, in series [1], at 3 µM the inhibition was 82.3%. In addition, the IC50 amounted to 1560 nM in [2], 8.78 nM in [3], 1760 nM in [4] and 410 nM in series [5].
As a reminder, the MRT last is the average time that molecules of a dose stay in the body. As usually defined, the MRT inf is a mean duration of stay, worked out from the concentration-time curve. In general, Tmax refers to the time at which the peak concentration occurs. In general, Cmax refers to the highest concentration seen after dosing. The term CL/F denotes the apparent clearance, not corrected for the fraction that reaches the circulation. By AUC(0-inf) is commonly meant total exposure, with the tail of the curve extrapolated. One may read the AUC(0-t) as exposure summed from dosing to a finite time, without extrapolation to infinity. By half-life is commonly meant how long it takes for the measured level to halve. The compound `Cn1ncc(Cl)c1-c1cc(C(=O)N[C@@H]2CN[C@H](CCO)C[C@H]2c2ccc(F)c(F)c2)oc1Cl` yielded an inhibition at 3 µM in [1] of 9%. For the same compound, the MRT last at 24 h in series [6] amounted to 5.1 h. For the same compound, the mean residence time MRT inf in series [7] amounted to 12.3 h. Moreover, the IC50 was found to be 102 nM in series [8]; 7.1 nM in series [9]; 16 nM in series [14]; 0.12 nM in series [16]; 32 nM in [17]; 360 nM in series [2]. Further, the half-maximal inhibitory concentration (IC50) in series [3] was 0.98 nM; in [22], 38 nM; in series [4], 460 nM; in series [5], 60 nM; in series [23], 0.54 nM; in [27], 0.2 nM. In series [10], the Tmax came out at 1.1 h. Further, the peak concentration (Cmax) in [11] amounted to 145 ng/mL. The remaining at 1 h, 100 ug/ml in series [12] and in [19] was > 99% each time. Besides, the CL/F in series [13] is 433 mL/min/kg. Also, in series [15], the AUC(0-inf) is 1660 ng·h/mL. Moreover, the remaining at 1.5 h, 100 ug/ml was 18% in [18], > 99% in series [24], 96% in [25] and 69% in [26]. Also, the AUC(0-t) at 24 h in series [20] turned out to be 1010 ng·h/mL. Further, the Vd in [21] amounted to 300.9 L/kg. In [28], the half-life was 12.7 h.
